{"source": "patent US10174035B2", "about": "“6-morpholinyl-2-pyrazolyl-9H-purine derivatives and their use as PI3K inhibitors” (Daiichi Sankyo Company, Limited, priority 2015, dated 2019)"}
{"biological_target": "recombinant PI3K δ enzyme (Homo sapiens (Human), UniProt O00329)", "sequence (O00329 whole entry, species assumed)": "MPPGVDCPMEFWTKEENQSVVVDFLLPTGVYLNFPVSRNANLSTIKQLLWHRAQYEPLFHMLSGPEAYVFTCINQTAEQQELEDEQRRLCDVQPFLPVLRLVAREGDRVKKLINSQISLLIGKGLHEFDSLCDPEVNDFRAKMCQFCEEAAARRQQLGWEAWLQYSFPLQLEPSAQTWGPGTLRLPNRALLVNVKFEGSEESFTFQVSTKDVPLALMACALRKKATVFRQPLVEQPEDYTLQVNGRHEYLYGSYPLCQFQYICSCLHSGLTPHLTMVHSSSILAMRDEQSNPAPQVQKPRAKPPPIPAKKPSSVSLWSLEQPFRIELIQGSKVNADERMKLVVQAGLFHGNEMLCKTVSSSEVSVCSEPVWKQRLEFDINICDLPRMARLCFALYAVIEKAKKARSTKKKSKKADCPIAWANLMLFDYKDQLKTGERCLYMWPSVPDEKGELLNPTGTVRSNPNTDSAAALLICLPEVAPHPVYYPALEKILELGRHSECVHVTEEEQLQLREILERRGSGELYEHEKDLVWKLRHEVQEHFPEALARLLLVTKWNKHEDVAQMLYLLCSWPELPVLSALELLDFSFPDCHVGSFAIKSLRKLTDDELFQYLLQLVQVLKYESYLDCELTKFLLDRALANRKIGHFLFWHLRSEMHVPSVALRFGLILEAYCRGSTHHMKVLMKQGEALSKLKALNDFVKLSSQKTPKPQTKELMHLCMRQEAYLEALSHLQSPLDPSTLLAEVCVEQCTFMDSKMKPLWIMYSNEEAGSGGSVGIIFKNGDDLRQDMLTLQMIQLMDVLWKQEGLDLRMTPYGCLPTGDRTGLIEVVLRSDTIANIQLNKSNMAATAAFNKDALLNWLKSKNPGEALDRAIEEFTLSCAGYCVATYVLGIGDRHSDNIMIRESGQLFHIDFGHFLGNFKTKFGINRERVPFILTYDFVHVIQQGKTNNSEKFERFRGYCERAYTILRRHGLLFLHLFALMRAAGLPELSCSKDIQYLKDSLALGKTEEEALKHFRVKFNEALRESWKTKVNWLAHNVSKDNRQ", "sequence (P27986 whole entry partner, species assumed)": "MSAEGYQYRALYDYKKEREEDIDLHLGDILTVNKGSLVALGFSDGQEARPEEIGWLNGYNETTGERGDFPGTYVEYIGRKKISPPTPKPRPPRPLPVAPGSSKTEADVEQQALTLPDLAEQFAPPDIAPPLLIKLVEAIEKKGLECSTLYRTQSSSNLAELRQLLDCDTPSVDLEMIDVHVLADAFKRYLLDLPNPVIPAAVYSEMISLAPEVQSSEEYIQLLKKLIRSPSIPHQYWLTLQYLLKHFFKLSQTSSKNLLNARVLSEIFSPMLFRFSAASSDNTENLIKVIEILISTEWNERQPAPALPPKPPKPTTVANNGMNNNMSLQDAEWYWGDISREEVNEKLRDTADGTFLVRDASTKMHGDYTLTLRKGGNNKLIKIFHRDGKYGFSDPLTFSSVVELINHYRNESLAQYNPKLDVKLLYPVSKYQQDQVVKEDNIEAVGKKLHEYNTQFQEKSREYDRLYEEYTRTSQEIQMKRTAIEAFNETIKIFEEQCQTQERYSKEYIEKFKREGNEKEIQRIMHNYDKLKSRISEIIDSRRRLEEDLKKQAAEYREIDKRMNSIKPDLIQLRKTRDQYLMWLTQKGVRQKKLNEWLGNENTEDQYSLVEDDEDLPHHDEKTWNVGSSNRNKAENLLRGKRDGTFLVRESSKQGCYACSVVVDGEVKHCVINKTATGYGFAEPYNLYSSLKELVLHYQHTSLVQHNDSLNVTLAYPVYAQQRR", "test": "In vitro enzyme assay (Kinase-Glo luminescent kinase assay), PI3Kδ", "assay_type": "biochemical", "procedure": "The Kinase-Glo luminescent kinase assay kit (from Promega) was used to measure kinase activity. In this assay, amount of ATP remaining in solution following a kinase reaction is measured. The effect of compounds on PI3Kδ inhibition was carried out by adding 2.29 μg/ml of recombinant PI3K δ enzyme (Proteros, Germany) to reaction mixture containing assay buffer (50 mM HEPES, pH 7.4, 50 mM NaCl, 0.05% CHAPS) supplemented with 10 mM MgCl2, 5 mM DTT, 60 μM Phosphatidyl inositol bisphosphate (PIP2) and 10 μM ATP in the absence or presence of different concentrations of the compounds in a final volume of 15 μl/well, in a 384 well plate. The reaction mixture was incubated for 2 hours at room temperature. At the end of incubation period the equal volume of Kinase-Glo plus (Promega, V3772), was added per well and the luminescence was measured after incubating for 10 minutes at room temperature in dark. Results were calculated by measuring the luminescence units of test samples to blanks containing no enzyme.\nThe compounds of the present invention were tested for their selectivity for PI3Kδ over PI3Kα, PI3Kβ and PI3Kγ following the above assay using specific recombinant enzymes (Proteros, Germany) for each kinase. Assay condition of kinase assay (PI3Kα, PI3Kβ, PI3Kγ and PI3Kδ) was as follows. Enzyme: 2.29 μg/mL; ATP: 10 μM; PIP2 substrate: 60 μM and Reaction Time: 2 hours.", "units": {"IC50": "nM"}}
{"smiles": "Cn1cc(-c2nc(N3CCOCC3)c3nc(C(=O)NCCCN4CCOCC4)[nH]c3n2)cn1", "note": "[compound 63, 2-(1-Methyl-1H-pyrazol-4-yl)-6-(morpholin-4-yl)-N-[3-(morpholin-4-yl)propyl]-9H-purine-8-carboxamide]", "IC50": 21}
{"smiles": "Cc1n[nH]cc1-c1nc(N2CCOCC2)c2nc(C(=O)N3CCC(N4CCOCC4)CC3)[nH]c2n1", "note": "[compound 66, [2-(3-Methyl-1H-pyrazol-4-yl)-6-(morpholin-4-yl)-9H-purin-8-yl][4-(morpholin-4-yl)piperidin-1-yl]methanone]", "IC50": 21}
{"smiles": "CCN(CCCN1CCOCC1)C(=O)c1nc2c(N3CCOCC3)nc(-c3cnn(C)c3)nc2[nH]1", "note": "[compound 69, N-ethyl-2-(1-methyl-1H-pyrazol-4-yl)-6-(morpholin-4-yl)-N-[3-(morpholin-4-yl)propyl]-9H-purine-8-carboxamide]", "IC50": 61}
{"smiles": "CN1CCN(CCNC(=O)c2nc3c(N4CCOCC4)nc(-c4cnn(C)c4)nc3[nH]2)CC1", "note": "[compound 70, N-[2-(4-methylpiperazin-1-yl)ethyl]-2-(1-methyl-1H-pyrazol-4-yl)-6-(morpholin-4-yl)-9H-purine-8-carboxamide]", "IC50": 54}
{"smiles": "Cc1nn(C)cc1-c1nc(N2CCOCC2)c2nc(C(=O)NCC3(CO)COC3)[nH]c2n1", "note": "[compound 71, 2-(1,3-Dimethyl-1H-pyrazol-4-yl)-N-{[3-(hydroxymethyl)oxetan-3-yl]methyl}-6-(morpholin-4-yl)-9H-purine-8-carboxamide]", "IC50": 30}
{"smiles": "Cn1cc(-c2nc(N3CCOCC3)c3nc(C(=O)NCCCN4CCCC4=O)n(C)c3n2)cn1", "note": "[compound 73, 9-Methyl-2-(1-methyl-1H-pyrazol-4-yl)-6-(morpholin-4-yl)-N-[3-(2-oxopyrrolidin-1-yl)propyl]-9H-purine-8-carboxamide]", "IC50": 60}
{"smiles": "O=C(c1nc2c(N3CCOCC3)nc(-c3cn[nH]c3)nc2[nH]1)N1CCC(N2CCOCC2=O)CC1", "note": "[compound 74, 4-(1-{[6-(Morpholin-4-yl)-2-(1H-pyrazol-4-yl)-9H-purin-8-yl]carbonyl}piperidin-4-yl)morpholin-3-one]", "IC50": 8}
{"smiles": "Cn1cc(-c2nc(N3CCOCC3)c3nc(C(=O)NCC(C)(C)CO)[nH]c3n2)cn1", "note": "[compound 76, N-(3-hydroxy-2,2-dimethylpropyl)-2-(1-methyl-1H-pyrazol-4-yl)-6-(morpholin-4-yl)-9H-purine-8-carboxamide]", "IC50": 101}
{"smiles": "Cn1cc(-c2nc3[nH]c(C(=O)N4CCN5C(=O)COC[C@H]5C4)nc3c(N3CCOCC3)c2F)cn1", "note": "[compound 80, (9aR)-8-{[6-Fluoro-5-(1-methyl-1H-pyrazol-4-yl)-7-(morpholin-4-yl)-3H-imidazo[4,5-b]pyridin-2-yl]carbonyl}hexahydropyrazino[2,1-c][1,4]oxazin-4(3H)-one]", "IC50": 194}
{"smiles": "Cn1cc(-c2nc3[nH]c(C(=O)N4CCN(C5CCOCC5)CC4)nc3c(N3CCOCC3)c2F)cn1", "note": "[compound 81, [6-Fluoro-5-(1-methyl-1H-pyrazol-4-yl)-7-(morpholin-4-yl)-3H-imidazo[4,5-b]pyridin-2-yl][4-(tetrahydro-2H-pyran-4-yl)piperazin-1-yl]methanone]", "IC50": 7}
{"smiles": "Cc1nn(C)cc1-c1nc2c(nc(C(=O)N3CCC(N4CCOCC4)CC3)n2CC2CC2)c(N2CCOCC2)c1F", "note": "[compound 83, [3-(Cyclopropylmethyl)-5-(1,3-dimethyl-1H-pyrazol-4-yl)-6-fluoro-7-(morpholin-4-yl)-3H-imidazo[4,5-b]pyridin-2-yl][4-(morpholin-4-yl)piperidin-1-yl]methanone]", "IC50": 92}
{"smiles": "Cc1nn(C)c(C)c1-c1nc2[nH]c(C(=O)N3CCC(N4CCOCC4)CC3)nc2c(N2CCOCC2)c1C", "note": "[compound 88, [6-Methyl-7-(morpholin-4-yl)-5-(1,3,5-trimethyl-1H-pyrazol-4-yl)-3H-imidazo[4,5-b]pyridin-2-yl][4-(morpholin-4-yl)piperidin-1-yl]methanone]", "IC50": 365}
{"smiles": "Cc1nn(C)cc1-c1nc2[nH]c(C(=O)N3CCC(N4CCOCC4)CC3)nc2c(N2CCOCC2)c1C", "note": "[compound 89, [5-(1,3-Dimethyl-1H-pyrazol-4-yl)-6-methyl-7-(morpholin-4-yl)-3H-imidazo[4,5-b]pyridin-2-yl][4-(morpholin-4-yl)piperidin-1-yl]methanone]", "IC50": 46}
{"smiles": "Cc1c(-c2cnn(C)c2)nc2[nH]c(C(=O)N3CCC(N4CCOCC4)CC3)nc2c1N1CCOCC1", "note": "[compound 90, [6-Methyl-5-(1-methyl-1H-pyrazol-4-yl)-7-(morpholin-4-yl)-3H-imidazo[4,5-b]pyridin-2-yl][4-(morpholin-4-yl)piperidin-1-yl]methanone]", "IC50": 188}
{"smiles": "Cc1nn(C)cc1-c1nc2[nH]c(C(=O)N3CCC(N4CCOCC4)CC3)nc2c(N2CCOCC2)c1Cl", "note": "[compound 91, [6-Chloro-5-(1,3-dimethyl-1H-pyrazol-4-yl)-7-(morpholin-4-yl)-3H-imidazo[4,5-b]pyridin-2-yl][4-(morpholin-4-yl)piperidin-1-yl]methanone]", "IC50": 31}
{"smiles": "Cn1cc(-c2nc3[nH]c(C(=O)N4CCC(N5CCOCC5)CC4)nc3c(N3CCOCC3)c2Cl)cn1", "note": "[compound 92, [6-Chloro-5-(1-methyl-1H-pyrazol-4-yl)-7-(morpholin-4-yl)-3H-imidazo[4,5-b]pyridin-2-yl][4-(morpholin-4-yl)piperidin-1-yl]methanone]", "IC50": 163}
{"smiles": "Cc1c(-c2nc3[nH]c(C(=O)N4CCC(N5CCOCC5)CC4)nc3c(N3CCOCC3)c2F)cnn1C", "note": "[compound 95, [5-(1,5-Dimethyl-1H-pyrazol-4-yl)-6-fluoro-7-(morpholin-4-yl)-3H-imidazo[4,5-b]pyridin-2-yl][4-(morpholin-4-yl)piperidin-1-yl]methanone]", "IC50": 202}
{"smiles": "CN(C)C1CCN(C(=O)c2nc3c(N4CCOCC4)cc(-c4cnn(C)c4)nc3n2C)CC1", "note": "[compound 100, [4-(Dimethylamino)piperidin-1-yl][3-methyl-5-(1-methyl-1H-pyrazol-4-yl)-7-(morpholin-4-yl)-3H-imidazo[4,5-b]pyridin-2-yl]methanone]", "IC50": 64}
{"smiles": "CN(C)C1CCN(C(=O)c2nc3c(N4CCOCC4)cc(-c4cnn(C)c4)nc3[nH]2)CC1", "note": "[compound 101, [4-(Dimethylamino)piperidin-1-yl][5-(1-methyl-1H-pyrazol-4-yl)-7-(morpholin-4-yl)-3H-imidazo[4,5-b]pyridin-2-yl]methanone]", "IC50": 41}
{"smiles": "Cn1cc(-c2cc(N3CCOCC3)c3nc(C(=O)NCCN4CCOCC4)[nH]c3n2)cn1", "note": "[compound 103, 5-(1-Methyl-1H-pyrazol-4-yl)-7-(morpholin-4-yl)-N-[2-(morpholin-4-yl)ethyl]-3H-imidazo[4,5-b]pyridine-2-carboxamide]", "IC50": 147}
{"smiles": "Cc1nn(C)cc1-c1cc(N2CCOCC2)c2nc(C(=O)N3CCC(N4CCOCC4)CC3)n(C)c2n1", "note": "[compound 104, [5-(1,3-Dimethyl-1H-pyrazol-4-yl)-3-methyl-7-(morpholin-4-yl)-3H-imidazo[4,5-b]pyridin-2-yl][4-(morpholin-4-yl)piperidin-1-yl]methanone]", "IC50": 22}
{"smiles": "Cn1cc(-c2nc3[nH]c(C(=O)NCCN4CCOCC4)nc3c(N3CCOCC3)c2F)cn1", "note": "[compound 105, 6-Fluoro-5-(1-methyl-1H-pyrazol-4-yl)-7-(morpholin-4-yl)-N-[2-(morpholin-4-yl)ethyl]-3H-imidazo[4,5-b]pyridine-2-carboxamide]", "IC50": 32}
{"smiles": "Cn1cc(-c2cc(N3CCOCC3)c3nc(C(=O)N4CCC(N5CCOCC5)CC4)n(C)c3n2)cn1", "note": "[compound 106, [3-Methyl-5-(1-methyl-1-pyrazol-4-yl)-7-(morpholin-4-yl)-3H-imidazo[4,5-b]pyridin-2-yl][4-(morpholin-4-yl)piperidin-1-yl]methanone]", "IC50": 30}
{"smiles": "Cc1nn(C)cc1-c1nc2c(nc(C(=O)N3CCC(C(C)(C)O)CC3)n2C)c(N2CCOCC2)c1F", "note": "[compound 107, [5-(1,3-Dimethyl-1H-pyrazol-4-yl)-6-fluoro-3-methyl-7-(morpholin-4-yl)-3H-imidazo[4,5-b]pyridin-2-yl][4-(2-hydroxypropan-2-yl)piperidin-1-yl]methanone]", "IC50": 58}
{"smiles": "Cn1cc(-c2nc3c(nc(C(=O)N4CCC5(CC4)COC5)n3C)c(N3CCOCC3)c2F)cn1", "note": "[compound 108, [6-Fluoro-3-methyl-5-(1-methyl-1-pyrazol-4-yl)-7-(morpholin-4-yl)-3H-imidazo[4,5-b]pyridin-2-yl](2-oxa-7-azaspiro[3.5]non-7-yl)methanone]", "IC50": 131}
{"smiles": "C[C@@H]1CN(C2CCN(C(=O)c3nc4c(N5CCOCC5)cc(-c5cnn(C)c5)nc4[nH]3)CC2)C[C@H](C)O1", "note": "[compound 109, {4-[cis-2,6-Dimethylmorpholin-4-yl]piperidin-1-yl}[5-(1-methyl-1H-pyrazol-4-yl)-7-(morpholin-4-yl)-3H-imidazo[4,5-b]pyridin-2-yl]methanone]", "IC50": 19}
{"smiles": "C[C@@H]1CN(C2CCN(C(=O)c3nc4c(N5CCOCC5)cc(-c5cnn(C)c5)nc4n3C)CC2)C[C@H](C)O1", "note": "[compound 110, {4-[cis-2,6-Dimethylmorpholin-4-yl]piperidin-1-yl}[3-methyl-5-(1-methyl-1H-pyrazol-4-yl)-7-(morpholin-4-yl)-3H-imidazo[4,5-b]pyridin-2-yl]methanone]", "IC50": 63}
